Test results taken from patent publication US6951856B2, “Arylethene-sulfonamides” (Actelion Pharmaceuticals Ltd., priority 2000, dated 2005).
Where two headings read alike, the source gives them in different places.

Assays:
ETA receptors = molecular target: T1, ETA receptors (Rattus norvegicus, UniProt P26684); experiment: Inhibition of endothelin-1-induced contractions on isolated rat aortic rings; format: cell-based
T1 construct: The thoracic aorta or trachea were excised, dissected and cut in 3-5 mm rings; from tissue; host or cells: thoracic aorta rings of adult Wistar rats, endothelium removed
T1 sequence (P26684 21-426): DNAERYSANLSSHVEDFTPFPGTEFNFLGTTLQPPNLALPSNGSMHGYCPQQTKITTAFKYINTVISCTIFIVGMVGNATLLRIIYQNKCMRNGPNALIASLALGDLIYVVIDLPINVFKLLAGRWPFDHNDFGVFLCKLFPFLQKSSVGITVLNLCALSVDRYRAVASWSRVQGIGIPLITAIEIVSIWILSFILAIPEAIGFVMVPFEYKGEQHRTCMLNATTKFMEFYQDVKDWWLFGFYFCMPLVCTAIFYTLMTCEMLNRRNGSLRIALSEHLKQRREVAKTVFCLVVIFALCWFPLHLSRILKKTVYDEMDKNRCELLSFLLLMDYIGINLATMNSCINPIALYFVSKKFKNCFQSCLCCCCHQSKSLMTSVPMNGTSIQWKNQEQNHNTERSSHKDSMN
Experimental: (§1) 2) Inhibition of Endothelin-Induced Contractions on Isolated Rat Aortic Rings (ETA Receptors) and Rat Tracheal Rings (ETB Receptors):
(§2) Adult Wistar rats were anesthetized and exsanguinated. The thoracic aorta or trachea were excised, dissected and cut in 3-5 mm rings. The endothelium/epithelium was removed by gentle rubbing of the intimal surface. Each ring was suspended in a 10 ml isolated organ bath filled with Krebs-Henseleit solution (in mM; NaCl 115, KCl 4.7, MgSO4 1.2, KH2PO4 1.5, NaHCO3 25, CaCl2 2.5, glucose 10) kept at 37° and gassed with 95% O2 and 5% CO2. The rings were connected to force transducers and isometric tension was recorded (EMKA Technologies SA, Paris, France). The rings were stretched to a resting tension of 3 g (aorta) or 2 g (trachea). […] The functional inhibitory potency of the test compound was assessed by calculating the concentration ratio, i.e. the shift to the right of the EC50 induced by different concentrations of test compound. EC50 is the concentration of endothelin needed to get a half-maximal contraction, pA2 is the negative logarithm of the antagonist concentration which induces a two-fold shift in the EC50 value.

ETB receptors = molecular target: T2, ETB receptors (Rattus norvegicus, UniProt P21451); experiment: Inhibition of sarafotoxin S6c-induced contractions on isolated rat tracheal rings; format: cell-based
T2 construct: The thoracic aorta or trachea were excised, dissected and cut in 3-5 mm rings; from tissue; host or cells: tracheal rings of adult Wistar rats, epithelium removed
T2 sequence (P21451 27-442): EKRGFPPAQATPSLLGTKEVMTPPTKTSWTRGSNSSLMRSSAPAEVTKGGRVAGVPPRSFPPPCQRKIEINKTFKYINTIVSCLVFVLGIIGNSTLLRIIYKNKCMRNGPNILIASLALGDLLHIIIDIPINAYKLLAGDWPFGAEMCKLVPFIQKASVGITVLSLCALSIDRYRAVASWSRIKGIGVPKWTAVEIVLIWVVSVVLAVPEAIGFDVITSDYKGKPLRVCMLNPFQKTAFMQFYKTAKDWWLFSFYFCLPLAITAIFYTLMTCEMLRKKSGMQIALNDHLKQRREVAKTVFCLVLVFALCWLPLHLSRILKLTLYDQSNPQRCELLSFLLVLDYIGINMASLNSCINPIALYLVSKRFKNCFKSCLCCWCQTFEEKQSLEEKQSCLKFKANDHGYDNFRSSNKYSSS
Experimental: as §1, §2

[1] = molecular target: T3, human recombinant ETA receptors (Homo sapiens, UniProt P25101); experiment: Inhibition of [125I]ET-1 binding to membranes from CHO cells carrying human ETA receptors; details: CHO cell membranes, 8 pM [125I]ET-1, 2 h at 20° C.
T3 construct: expressed in transfected cells; host or cells: CHO cells (microsomal membranes)
T3 sequence (P25101 21-427): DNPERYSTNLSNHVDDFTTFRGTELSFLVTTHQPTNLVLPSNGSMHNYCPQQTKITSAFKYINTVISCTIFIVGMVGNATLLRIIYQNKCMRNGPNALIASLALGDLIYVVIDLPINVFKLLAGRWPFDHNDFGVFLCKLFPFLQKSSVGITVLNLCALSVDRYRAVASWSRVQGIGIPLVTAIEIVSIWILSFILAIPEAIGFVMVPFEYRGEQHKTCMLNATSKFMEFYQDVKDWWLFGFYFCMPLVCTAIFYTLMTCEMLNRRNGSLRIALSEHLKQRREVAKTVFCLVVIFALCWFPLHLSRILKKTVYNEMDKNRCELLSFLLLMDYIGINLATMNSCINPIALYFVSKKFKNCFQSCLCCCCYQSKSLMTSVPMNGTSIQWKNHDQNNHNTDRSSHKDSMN
Experimental: (§3) 1) Inhibition of Endothelin Binding to Membranes from CHO Cells Carrying Human ET Receptors
(§4) For competition binding studies, membranes of CHO cells expressing human recombinant ETA or ETB receptors were used. Microsomal membranes from recombinant CHO cells were prepared and the binding assay made as previously described (Breu V., et al, FEBS Lett 1993; 334:210).
(§5) The assay was performed in 200 uL 50 mM Tris/HCl buffer, pH 7.4, including 25 mM MnCl2, 1 mM EDTA and 0.5% (w/v) BSA in polypropylene microtiter plates. […] After 2 h, the membranes were filtered on filterplates containing GF/C filters (Unifilterplates from Canberra Packard S.A. Zürich, Switzerland). To each well, 50 uL of scintillation cocktail was added (MicroScint 20, Canberra Packard S.A. Zürich, Switzerland) and the filter plates counted in a microplate counter (TopCount, Canberra Packard S.A. Zürich, Switzerland).
(§6) All the test compounds were dissolved, diluted and added in DMSO.

[2] = molecular target: T4, human recombinant ETB receptors (Homo sapiens, UniProt P24530); experiment: Inhibition of [125I]ET-1 binding to membranes from CHO cells carrying human ETB receptors
T4 construct: expressed in transfected cells; host or cells: CHO cells (microsomal membranes)
T4 sequence (P24530 27-442): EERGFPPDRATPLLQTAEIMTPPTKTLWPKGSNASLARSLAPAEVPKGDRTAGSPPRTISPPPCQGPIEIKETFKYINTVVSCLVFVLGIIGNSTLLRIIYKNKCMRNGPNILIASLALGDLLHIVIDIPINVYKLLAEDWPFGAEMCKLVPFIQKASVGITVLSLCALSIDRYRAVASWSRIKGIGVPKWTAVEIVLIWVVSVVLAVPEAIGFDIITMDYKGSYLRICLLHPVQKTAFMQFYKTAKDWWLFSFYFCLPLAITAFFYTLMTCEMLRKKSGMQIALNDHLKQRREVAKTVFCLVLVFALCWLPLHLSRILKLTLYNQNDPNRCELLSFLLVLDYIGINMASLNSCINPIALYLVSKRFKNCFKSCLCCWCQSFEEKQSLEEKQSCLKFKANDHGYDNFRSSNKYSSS
Experimental: as §3, §4, §5, §6

[3] = read-out: pA2 value ETA (converted)

Row | Structure (SMILES) | Kb (ETA receptors) [µM] | Kb (ETB receptors) [µM] | IC50 [1] [µM] | IC50 [2] [µM] | Kb (ETA receptors; [3]) [µM]
1 | Cc1ccc(-c2c(NS(=O)(=O)/C=C/c3ccccc3)ncnc2OCCOc2ncc(Br)cn2)cc1 [Example 1, 2-phenyl-ethenesulfonic acid {6-[2-(5-bromo-pyrimidin-2-yloxy)-ethoxy]-5-p-tolyl-pyrimidin-4-yl}-amide] | 0.00186 | 0.0813 | 0.0018 | 0.569 | –
2 | Cc1ccc(-c2c(NS(=O)(=O)/C=C/c3ccccc3)ncnc2OCCOc2ncc(Cl)cn2)cc1 [Example 14] | – | – | 0.00475 | 0.841 | 0.00214
3 | Cc1ccc(-c2c(NS(=O)(=O)/C=C/c3ccccc3)ncnc2OCCOc2ncc(F)cn2)cc1 [Example 15] | – | – | 0.018 | 2.13 | 0.0269
4 | O=S(=O)(/C=C/c1ccccc1)Nc1ncnc(OCCOc2ncc(Br)cn2)c1-c1ccc(Cl)cc1 [Example 43] | – | – | 0.0046 | 0.408 | 0.000851
5 | Cc1ccc(-c2c(NS(=O)(=O)/C=C/c3cccs3)ncnc2OCCOc2ncc(Br)cn2)cc1 [Example 67] | – | – | 0.0078 | 0.752 | 0.000316
6 | Cc1ccc(-c2c(NS(=O)(=O)/C=C/c3ccccc3)nc(-c3ccncc3)nc2OCCOc2ncc(Br)cn2)cc1 [Example 80] | – | 6.17 | 0.0197 | 2.57 | 0.00447
7 | O=S(=O)(/C=C/c1ccccc1)Nc1ncnc(OCCOc2ncc(Br)cn2)c1-c1ccc(Br)cc1 [Example 85] | – | – | 0.0038 | 0.238 | 0.000851
8 | O=S(=O)(/C=C/c1ccccc1)Nc1ncnc(OCCOc2ncc(Br)cn2)c1-c1ccccc1 [Example 92] | – | – | 0.02 | 7.47 | 0.0123
9 | Cc1ccc(-c2c(NS(=O)(=O)/C=C/c3ccccc3)nc(-c3ncccn3)nc2OCCOc2ncc(Br)cn2)cc1 [Example 140] | – | – | 0.0125 | 1.09 | 0.00186
10 | COc1ccccc1Oc1c(NS(=O)(=O)/C=C/c2ccccc2)nc(-c2ncccn2)nc1OCCOc1ncccn1 [Example 152] | – | 0.912 | 0.0433 | 4.82 | 0.0204
11 | COc1ccccc1Oc1c(NS(=O)(=O)/C=C/c2cccs2)nc(-c2ccncc2)nc1OCCOc1ncc(Br)cn1 [Example 173] | – | 0.0794 | 0.0042 | 0.976 | 0.00148
12 | COc1ccccc1Oc1c(NS(=O)(=O)/C=C/c2cccs2)nc(-c2ccncc2)nc1OCCOc1ncccn1 [Example 174] | – | – | 0.0067 | 1.01 | 0.0132
13 | COc1ccccc1Oc1c(NS(=O)(=O)/C=C/c2ccccc2)nc(N2CCOCC2)nc1OCCOc1ncc(Br)cn1 [Example 193] | – | 0.126 | 0.0026 | 0.537 | 0.00251
14 | COc1ccccc1Oc1c(NS(=O)(=O)/C=C/c2ccccc2)nc(N2CCOCC2)nc1OCCOc1ncccn1 [Example 194] | – | 0.316 | 0.0078 | 0.627 | 0.0316
15 | COc1ccccc1Oc1c(NS(=O)(=O)/C=C/c2ccccc2)nc(N2CCOCC2)nc1OCCOc1ncc(Cl)cn1 [Example 195] | – | – | 0.006 | 0.293 | 0.00912
16 | COc1ccccc1Oc1c(NS(=O)(=O)/C=C/c2ccccc2)nc(N2CCOCC2)nc1OCCOc1ncc(F)cn1 [Example 196] | – | – | 0.0047 | 0.427 | 0.0209
17 | COc1ccccc1Oc1c(NS(=O)(=O)/C=C/c2ccccc2)ncnc1OCCOc1ncc(Br)cn1 [Example 211] | – | 0.224 | 0.038 | 2.64 | 0.0245
